The source of these data is PubChem BioAssay AID330 (DTP/NCI, 2004).

This assay relates to P388 leukemia ip, CD2F1 mice, survival T/C. The experiment in a line: NCI In Vivo Anticancer Drug Screen. Data for tumor model P388 Leukemia (intraperitoneal) in CD2F1 (CDF1) mice. Conditions: endpoint: median survival time, higher = longer survival. The procedure, abridged:
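Mice carrying the transplanted tumor received test compound or vehicle. Survival was recorded in each group, and the value is the treated-group measurement divided by that of the vehicle-treated control group.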

[1] abbreviates: dose: 100.0 mg/kg/injection, schedule: Q04DX002 (ip), vehicle: saline with Tween-80.
The mark [2] stands for this setting: dose: 25.0 mg/kg/injection, schedule: Q01DX009 (ip), vehicle: saline with Tween-80.
Setting [3] is: dose: 50.0 mg/kg/injection, schedule: Q01DX009 (ip), vehicle: saline with Tween-80.
Setting [4] is: dose: 100.0 mg/kg/injection, schedule: Q01DX009 (ip), vehicle: saline with Tween-80.
Where [5] appears, read: dose: 200.0 mg/kg/injection, schedule: Q01DX009 (ip), vehicle: saline with Tween-80.
The mark [6] stands for this setting: dose: 50.0 mg/kg/injection, schedule: Q01DX009 (ip), vehicle: saline.
[7] abbreviates: dose: 100.0 mg/kg/injection, schedule: Q01DX009 (ip), vehicle: saline.
Setting [8] is: dose: 200.0 mg/kg/injection, schedule: Q01DX009 (ip), vehicle: saline.
[9] abbreviates: dose: 60.0 mg/kg/injection, schedule: Q01DX005 (ip), vehicle: Klucel (hydroxypropylcellulose) (HPC).
[10] abbreviates: dose: 100.0 mg/kg/injection, schedule: Q04DX003 (ip), vehicle: saline with Tween-80.
The mark [11] stands for this setting: dose: 200.0 mg/kg/injection, schedule: Q04DX003 (ip), vehicle: saline with Tween-80.
Where [12] appears, read: dose: 400.0 mg/kg/injection, schedule: Q04DX003 (ip), vehicle: saline with Tween-80.
Where [13] appears, read: dose: 50.0 mg/kg/injection, schedule: Q01DX005 (ip), vehicle: saline with Tween-80.
Where [14] appears, read: dose: 100.0 mg/kg/injection, schedule: Q04DX003 (ip), vehicle: saline.
Setting [15] is: dose: 25.0 mg/kg/injection, schedule: Q01DX005 (ip), vehicle: Klucel (hydroxypropylcellulose) (HPC).
The mark [16] stands for this setting: dose: 50.0 mg/kg/injection, schedule: Q01DX005 (ip), vehicle: Klucel (hydroxypropylcellulose) (HPC).

Each structure is given as a SMILES string. “And” between values parts separate entries of the source, which are not always exact repeats. Identical values can stand only once. Inconclusive results and toxic doses are left out.

As for `CSC(C=C1C=CN(CC(=O)c2ccccc2)C=C1)=C(C#N)C#N`, the T/C (dose: 25.0 mg/kg/injection, schedule: Q04DX002 (ip), vehicle: saline with Tween-80) is 97 % of control; the T/C (dose: 50.0 mg/kg/injection, schedule: Q04DX002 (ip), vehicle: saline with Tween-80) was 102 % of control; the T/C under setting [1] is 99 % of control.
Regarding `CN(C)c1ccc(C(=N)c2ccc(N(C)C)cc2)cc1` (tested in a mixture with another compound), the T/C was 100 % of control under setting [2], 95 % of control under setting [3] and 100 % of control under setting [4].
As to `CCc1cnc2ccccc2c1/C=C/c1ccc(N(C)C)cc1`, the T/C reads like this: under setting [3], 98 % of control; under setting [4], 105 % of control; under setting [5], 103 % of control.
Take `NC1=NC(c2ccc(O)cc2O)c2[nH]cnc2N1` (centres undefined): the T/C under setting [6] is 99 % of control, the T/C under setting [7] was 100 % of control and the T/C under setting [8] was 97 % of control.
Consider `CCCN(CCC)CCCOC(=O)c1ccc2oc3ccc(C(=O)OCCCN(CCC)CCC)cc3c2c1`, for which the T/C is, setting by setting: under setting [6], 103 % of control; under setting [7], 106 % of control.
As for `CC(C)(C)c1ccc(Sc2cccc3c2C(=O)c2c(Sc4cccc(F)c4)cccc2C3=O)cc1`, the T/C is 99 % of control under setting [1]; 89 % of control (dose: 200.0 mg/kg/injection, schedule: Q04DX002 (ip), vehicle: saline with Tween-80); 95 % of control (dose: 400.0 mg/kg/injection, schedule: Q04DX002 (ip), vehicle: saline with Tween-80).
Take `CCCc1cccc2c3c([nH]c12)C(CC)(CC(=O)O)OCC3` (centres undefined): the T/C (dose: 100.0 mg/kg/injection, schedule: Q01DX001 (ip), vehicle: Klucel (hydroxypropylcellulose) (HPC)) was 96 % of control; the T/C (dose: 200.0 mg/kg/injection, schedule: Q01DX001 (ip), vehicle: Klucel (hydroxypropylcellulose) (HPC)) was 96 % of control; the T/C (dose: 400.0 mg/kg/injection, schedule: Q01DX001 (ip), vehicle: Klucel (hydroxypropylcellulose) (HPC)) was 91 % of control.
Consider `Cc1ccccc1-n1c(SCC(=O)NC(=O)Nc2cccc(Cl)c2)nc2c(Br)cc(Br)cc2c1=O`, for which the T/C by setting is: under setting [9], 99 % of control; (dose: 120.0 mg/kg/injection, schedule: Q01DX005 (ip), vehicle: Klucel (hydroxypropylcellulose) (HPC)) 101 % of control; (dose: 240.0 mg/kg/injection, schedule: Q01DX005 (ip), vehicle: Klucel (hydroxypropylcellulose) (HPC)) 87 % of control.
Consider `CCOC(=O)NC1CCC2(C)CCCCC2C1` (centres undefined), for which the T/C under setting [6] was 100 % of control, the T/C under setting [7] is 97 % of control and the T/C under setting [8] was 109 % of control.
Turning to `CCOC(OCC)c1c(Cl)cccc1Cl`, the T/C reads like this: under setting [4], 118 % of control; under setting [10], 100 % of control; under setting [5], 118 % of control; under setting [11], 100 % of control; under setting [12], 90 % of control.
As for `CSC1=Nc2cc3c(cc2C(=O)N2C[C@H](O)CC12)OCO3` (some centres undefined), the T/C by setting is: under setting [13], 108 % of control; (dose: 100.0 mg/kg/injection, schedule: Q01DX005 (ip), vehicle: saline with Tween-80) 102 % of control; (dose: 200.0 mg/kg/injection, schedule: Q01DX005 (ip), vehicle: saline with Tween-80) 94 % of control.
Consider `O=C1OC(=O)C(c2ccccc2)(c2ccccc2)C1c1ccccc1` (centres undefined), for which the T/C under setting [10] is 112 % of control, the T/C under setting [11] is 119 % of control and the T/C under setting [12] is 112 % of control.
For `C/C(=N\NC(=S)N1CCCCCCCCCCCC1)c1ccccn1`, the T/C by setting is: (dose: 6.25 mg/kg/injection, schedule: Q04DX003 (ip), vehicle: Klucel (hydroxypropylcellulose) (HPC)) 101 % of control; (dose: 12.5 mg/kg/injection, schedule: Q04DX003 (ip), vehicle: Klucel (hydroxypropylcellulose) (HPC)) 100 % of control and 102 % of control and 117 % of control; (dose: 25.0 mg/kg/injection, schedule: Q04DX003 (ip), vehicle: Klucel (hydroxypropylcellulose) (HPC)) 100 % of control and 113 % of control and 120 % of control; (dose: 50.0 mg/kg/injection, schedule: Q04DX003 (ip), vehicle: Klucel (hydroxypropylcellulose) (HPC)) 93 % of control.
Regarding `NC(=O)C1CCCN1C(=O)C1CCCN(Cc2cc(CN3CCCC(C(=O)N4CCCC4C(N)=O)C3)cc(CN3CCCC(C(=O)N4CCCC4C(N)=O)C3)c2)C1` (centres undefined), the T/C was 104 % of control (dose: 60.0 mg/kg/injection, schedule: Q01DX005 (ip), vehicle: saline); 98 % of control (dose: 120.0 mg/kg/injection, schedule: Q01DX005 (ip), vehicle: saline); 95 % of control (dose: 240.0 mg/kg/injection, schedule: Q01DX005 (ip), vehicle: saline).
Turning to `N#CC(C#N)=C(C#N)Nc1ccc(F)cc1`, the T/C is, setting by setting: (dose: 30.0 mg/kg/injection, schedule: Q01DX005 (ip), vehicle: Klucel (hydroxypropylcellulose) (HPC)) 91 % of control; under setting [9], 90 % of control.
For the molecule `CC12CCC(N3CCCC3)CC1=CCC1C2CCC2(C)C1CCCN2CCO` (centres undefined), the T/C is 99 % of control (dose: 12.5 mg/kg/injection, schedule: Q01DX001 (ip), vehicle: Klucel (hydroxypropylcellulose) (HPC)); 99 % of control (dose: 25.0 mg/kg/injection, schedule: Q01DX001 (ip), vehicle: Klucel (hydroxypropylcellulose) (HPC)); 103 % of control (dose: 50.0 mg/kg/injection, schedule: Q01DX001 (ip), vehicle: Klucel (hydroxypropylcellulose) (HPC)).
For `CC1CN1P(=O)(N1CCCCCC1)N1CC1C` (centres undefined), the T/C is 104 % of control (dose: 12.5 mg/kg/injection, schedule: Q04DX003 (ip), vehicle: saline); 122 % of control (dose: 22.0 mg/kg/injection, schedule: Q01DX009 (ip), vehicle: saline); 100 % of control (dose: 25.0 mg/kg/injection, schedule: Q04DX003 (ip), vehicle: saline); 155 % of control (dose: 33.0 mg/kg/injection, schedule: Q01DX009 (ip), vehicle: saline); 154 % of control and 166 % of control under setting [6]; 111 % of control (dose: 75.0 mg/kg/injection, schedule: Q01DX009 (ip), vehicle: saline). Under setting [14], the T/C was 158 % of control.
`CC(=O)OCC1=C(C)CC(C(C)C2CCC3C4CC5OC56C(OC(C)=O)C(N5CC5)CC(=O)C6(C)C4CCC23C)OC1=O` (centres undefined): the T/C (dose: 3.12 mg/kg/injection, schedule: Q01DX005 (ip), vehicle: Klucel (hydroxypropylcellulose) (HPC)) was 100 % of control; the T/C (dose: 6.25 mg/kg/injection, schedule: Q01DX005 (ip), vehicle: Klucel (hydroxypropylcellulose) (HPC)) is 98 % of control; the T/C (dose: 12.5 mg/kg/injection, schedule: Q01DX005 (ip), vehicle: Klucel (hydroxypropylcellulose) (HPC)) was 104 % of control; the T/C under setting [15] is 112 % of control; the T/C under setting [16] was 110 % of control.
For `CCCCNC(=O)C(C)OC(=O)C(CC)CCCC` (centres undefined), the T/C is, setting by setting: under setting [15], 105 % of control; under setting [16], 100 % of control; (dose: 100.0 mg/kg/injection, schedule: Q01DX005 (ip), vehicle: Klucel (hydroxypropylcellulose) (HPC)) 102 % of control; (dose: 200.0 mg/kg/injection, schedule: Q01DX005 (ip), vehicle: Klucel (hydroxypropylcellulose) (HPC)) 105 % of control.
As for `CC(C)S(=O)(=O)/C(Cl)=C(/Cl)C(Cl)=C(Cl)Cl`, the T/C was 100 % of control (dose: 12.5 mg/kg/injection, schedule: Q01DX009 (ip), vehicle: saline with Tween-80); 109 % of control under setting [2]; 95 % of control under setting [3].
In the case of `O=C1OC(=O)C2C3C=CC(C4C=C(C5CC5)C43)C12` (centres undefined), the T/C was 102 % of control under setting [14]; 107 % of control (dose: 200.0 mg/kg/injection, schedule: Q04DX003 (ip), vehicle: saline); 111 % of control (dose: 400.0 mg/kg/injection, schedule: Q04DX003 (ip), vehicle: saline).
On to `CSC(=S)N/N=C(\C)Cc1ccccn1`, for which the T/C is 102 % of control (dose: 12.5 mg/kg/injection, schedule: Q01DX005 (ip), vehicle: saline with Tween-80); 100 % of control (dose: 25.0 mg/kg/injection, schedule: Q01DX005 (ip), vehicle: saline with Tween-80); 101 % of control and 95 % of control under setting [13].
